PubChem BioAssay (NCI)
Values joined by “and” are separate entries in the source; they are usually repeats but may differ in a detail not shown here. Equal values may be shown once.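 Values below derive from 48-hour exposures of cells grown in 96-well plates, with endpoints linearly interpolated between the two concentrations bracketing the appropriate inhibition level. Abbreviation: GI50, concentration required for 50% inhibition of growth. At the TGI there is no net growth.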

These compounds were tested on NCI-H522 lung (assay: growth of human tumour cells (NCI), 48 h).

Row | Compound | GI50 | TGI
1 | C[C@@H]1Cc2c([nH]c3ccccc23)[C@@H](c2c(F)cc(/C=C/C(=O)O)cc2F)N1CC(C)(C)F | 14 µM | 33.6 µM
2 | O=C1CCC(NC(=O)c2ccccc2)C(=O)N1 (configuration not stated) |  | > 100 µM
3 | CC1(C)N=C(N)N=C(N)N1c1ccc(CCCCc2ccc(S(=O)(=O)F)cc2Cl)c(Cl)c1 |  | 31.4 µM
4 | CN(C)c1ccc(/C=C2\C[N+](C)(C)C/C(=C\c3ccc(N(C)C)cc3)C2=O)cc1 |  | 26.2 µM
5 | NS(=O)(=O)c1ccc(-n2nc(-c3ccc(Br)cc3)ccc2=O)cc1 | 2.09 µM | > 10 µM
6 | Cn1cc(C2=C(c3ccc(OC[C@@H](O)CO)cc3)C(=O)NC2=O)c2ccccc21 | > 25 µM | > 25 µM
7 | CCOC(=O)c1cc(-c2ccc([N+](=O)[O-])cc2)n(-c2ccc(C(=O)O)c(O)c2)c1C | 6.48 µM | 23.9 µM
8 | N#Cc1cnn2ccn(C3OC(COC(=O)c4ccccc4)C(OC(=O)c4ccccc4)C3OC(=O)c3ccccc3)c12 (configuration not stated) |  | > 21.5 µM
9 | CCOc1ccc2nc(NC(=O)/C(CC(=O)CC(C3=C(O)c4ccccc4CC3=O)c3ccccc3)=N\O)sc2c1 (configuration not stated) |  | > 100 µM
10 | CCN1CCN(c2nc(NCCNc3ccnc4cc(Cl)ccc34)c3ccccc3n2)CC1 | 2.14 µM | 4.54 µM
11 | CN(C)c1ccc2c(c1)oc(=O)c1ccccc12 |  | 20.9 µM
12 | CC1=C[C@@H]2Cc3occc3C(C)(C)[C@@H]2CC1 |  | 28.6 µM
13 | CC(=O)c1ccc(N(/C=C/C(=O)C(F)(F)F)CC(=O)c2ccc(Cl)c(Cl)c2)cc1 | 13.2 µM | 27.7 µM
14 | O=c1c(Cl)c(Cl)cnn1-c1ccccc1 |  | 2.82 µM and 3.79 µM
15 | COc1cccc(-c2nn(-c3ccccc3)cc2-c2ccnc(NCCCNS(=O)(=O)c3cccc(F)c3)c2)c1 | 2.05 µM | 21.2 µM
16 | NC1(CCCCCCCCCCC(=O)O)CNCCNCCNCCNC1 |  | > 100 µM
17 | C#CC(C)(C)Oc1cc(O)c2c(=O)c3ccccc3n(C)c2c1 |  | > 100 µM
18 | CC[n+]1ccc2c(c1)C(=O)c1nccc3c1c-2nc1ccccc13 | 0.538 µM | 1.45 µM

The compounds below were run on HCT-116 colon (assay: growth of human tumour cells (NCI), 48 h).

Row | Compound | GI50 | TGI
19 | N#Cc1nc(-c2ccc(F)cc2)oc1S(=O)(=O)N1CCOCC1 | 1.28 µM | 3.07 µM
20 | Cc1c(Cl)cccc1Nc1ncccc1C(=O)O | 46.8 µM | > 100 µM
21 | COc1cc2c(c(O)c1C)C(=O)C(Cl)=CC2=O |  | 22.6 µM
22 | Fc1ccc(-c2nn(-c3ccccc3)cc2-c2nc3ccccc3o2)cc1 | 2.5 µM | 20.7 µM
23 | CN=C1NC(=O)/C(=C/c2ccc3ncccc3c2)S1 | 5.29 µM | > 25 µM
24 | CN(C)CCNC(=O)c1cccc2nc3c(Cl)cccc3nc12 |  | 16.1 µM
25 | COc1ccc(CN2CCCC(C(=O)c3ccc(C(F)(F)F)cc3)C2)c(O)c1 (configuration not stated) | 21.2 µM | > 100 µM
26 | O=S(=O)(O)C(O)/C=C/c1ccccc1 (configuration not stated) |  | > 100 µM
27 | OCCNCO |  | > 100 µM
28 | CC1=C2[C@@H](CC1)[C@]1(C)O[C@@](C(C)C)(C[C@H]1OC(=O)[C@H](C)O)[C@H]2OC(=O)/C=C/c1ccccc1 | 13.4 µM | 29.2 µM
29 | O=C(Cc1ccc(/C=C/C(=O)c2ncc[nH]2)cc1)Nc1ccc(Cl)cc1 | 0.848 µM | 3.41 µM
30 | Cc1c(C(=O)/C=C/c2cccc3ccccc23)[n+](=O)c2ccccc2n1[O-] |  | 18.8 µM
31 | COC(=O)c1c2c(c(C)[n+]([O-])c1C)C(=O)C=CC2=O | 0.945 µM | 7.5 µM
32 | C[C@@H]1Cc2c([nH]c3ccccc23)[C@@H](c2c(F)cc(/C=C/C(=O)O)cc2F)N1CC(C)(C)F | 12.7 µM | 26.7 µM
33 | O=C1CCC(NC(=O)c2ccccc2)C(=O)N1 (configuration not stated) |  | > 100 µM
34 | CC1(C)N=C(N)N=C(N)N1c1ccc(CCCCc2ccc(S(=O)(=O)F)cc2Cl)c(Cl)c1 |  | 140 µM

Row | Compound | GI50 | TGI
35 | CN(C)c1ccc(/C=C2\C[N+](C)(C)C/C(=C\c3ccc(N(C)C)cc3)C2=O)cc1 |  | 22.5 µM
36 | NS(=O)(=O)c1ccc(-n2nc(-c3ccc(Br)cc3)ccc2=O)cc1 | > 10 µM | > 10 µM
37 | Cn1cc(C2=C(c3ccc(OC[C@@H](O)CO)cc3)C(=O)NC2=O)c2ccccc21 | > 25 µM | > 25 µM
38 | CCOC(=O)c1cc(-c2ccc([N+](=O)[O-])cc2)n(-c2ccc(C(=O)O)c(O)c2)c1C | 2.78 µM | 11.6 µM
39 | N#Cc1cnn2ccn(C3OC(COC(=O)c4ccccc4)C(OC(=O)c4ccccc4)C3OC(=O)c3ccccc3)c12 (configuration not stated) |  | > 21.5 µM
40 | CCOc1ccc2nc(NC(=O)/C(CC(=O)CC(C3=C(O)c4ccccc4CC3=O)c3ccccc3)=N\O)sc2c1 (configuration not stated) |  | > 100 µM
41 | CCN1CCN(c2nc(NCCNc3ccnc4cc(Cl)ccc34)c3ccccc3n2)CC1 | 1.1 µM | 6.13 µM
42 | CN(C)c1ccc2c(c1)oc(=O)c1ccccc12 |  | 25.9 µM
43 | CC1=C[C@@H]2Cc3occc3C(C)(C)[C@@H]2CC1 |  | 33.7 µM
44 | CC(=O)c1ccc(N(/C=C/C(=O)C(F)(F)F)CC(=O)c2ccc(Cl)c(Cl)c2)cc1 | 13.4 µM | 26.2 µM
45 | O=c1c(Cl)c(Cl)cnn1-c1ccccc1 |  | 3.5 µM and 6.4 µM
46 | COc1cccc(-c2nn(-c3ccccc3)cc2-c2ccnc(NCCCNS(=O)(=O)c3cccc(F)c3)c2)c1 | 3.67 µM | > 100 µM
47 | NC1(CCCCCCCCCCC(=O)O)CNCCNCCNCCNC1 |  | 81.2 µM
48 | C#CC(C)(C)Oc1cc(O)c2c(=O)c3ccccc3n(C)c2c1 |  | > 100 µM
49 | CC[n+]1ccc2c(c1)C(=O)c1nccc3c1c-2nc1ccccc13 | 1.1 µM | 7.18 µM

Each compound was assayed on CAKI-1 renal (assay: growth of human tumour cells (NCI), 48 h).

Row | Compound | GI50 | TGI
50 | N#Cc1nc(-c2ccc(F)cc2)oc1S(=O)(=O)N1CCOCC1 | 2.12 µM | 5.62 µM
51 | Cc1c(Cl)cccc1Nc1ncccc1C(=O)O | 59 µM | > 100 µM
52 | COc1cc2c(c(O)c1C)C(=O)C(Cl)=CC2=O |  | 11.6 µM
53 | Fc1ccc(-c2nn(-c3ccccc3)cc2-c2nc3ccccc3o2)cc1 | 3.13 µM | > 100 µM
54 | CN=C1NC(=O)/C(=C/c2ccc3ncccc3c2)S1 | 4.6 µM | > 20.9 µM
55 | CN(C)CCNC(=O)c1cccc2nc3c(Cl)cccc3nc12 |  | > 70.8 µM
56 | COc1ccc(CN2CCCC(C(=O)c3ccc(C(F)(F)F)cc3)C2)c(O)c1 (configuration not stated) | 22.1 µM | > 100 µM
57 | O=S(=O)(O)C(O)/C=C/c1ccccc1 (configuration not stated) |  | > 100 µM
58 | OCCNCO |  | > 100 µM
59 | CC1=C2[C@@H](CC1)[C@]1(C)O[C@@](C(C)C)(C[C@H]1OC(=O)[C@H](C)O)[C@H]2OC(=O)/C=C/c1ccccc1 | 6.12 µM | 26 µM
60 | O=C(Cc1ccc(/C=C/C(=O)c2ncc[nH]2)cc1)Nc1ccc(Cl)cc1 | 4.88 µM | 15.4 µM
61 | Cc1c(C(=O)/C=C/c2cccc3ccccc23)[n+](=O)c2ccccc2n1[O-] |  | 21.8 µM
62 | COC(=O)c1c2c(c(C)[n+]([O-])c1C)C(=O)C=CC2=O | 1.95 µM | 4.2 µM
63 | C[C@@H]1Cc2c([nH]c3ccccc23)[C@@H](c2c(F)cc(/C=C/C(=O)O)cc2F)N1CC(C)(C)F | 18.8 µM | 61.8 µM
64 | O=C1CCC(NC(=O)c2ccccc2)C(=O)N1 (configuration not stated) |  | > 100 µM
65 | CC1(C)N=C(N)N=C(N)N1c1ccc(CCCCc2ccc(S(=O)(=O)F)cc2Cl)c(Cl)c1 |  | 128 µM
66 | CN(C)c1ccc(/C=C2\C[N+](C)(C)C/C(=C\c3ccc(N(C)C)cc3)C2=O)cc1 |  | > 100 µM
67 | NS(=O)(=O)c1ccc(-n2nc(-c3ccc(Br)cc3)ccc2=O)cc1 | > 10 µM | > 10 µM
68 | Cn1cc(C2=C(c3ccc(OC[C@@H](O)CO)cc3)C(=O)NC2=O)c2ccccc21 | > 25 µM | > 25 µM
69 | CCOC(=O)c1cc(-c2ccc([N+](=O)[O-])cc2)n(-c2ccc(C(=O)O)c(O)c2)c1C | 11.6 µM | 30.1 µM
70 | N#Cc1cnn2ccn(C3OC(COC(=O)c4ccccc4)C(OC(=O)c4ccccc4)C3OC(=O)c3ccccc3)c12 (configuration not stated) |  | 21.5 µM
71 | CCOc1ccc2nc(NC(=O)/C(CC(=O)CC(C3=C(O)c4ccccc4CC3=O)c3ccccc3)=N\O)sc2c1 (configuration not stated) |  | > 100 µM
72 | CN(C)c1ccc2c(c1)oc(=O)c1ccccc12 |  | 26.1 µM
73 | CC1=C[C@@H]2Cc3occc3C(C)(C)[C@@H]2CC1 |  | 52.2 µM
74 | CC(=O)c1ccc(N(/C=C/C(=O)C(F)(F)F)CC(=O)c2ccc(Cl)c(Cl)c2)cc1 | 16.4 µM | 33.1 µM
75 | COc1cccc(-c2nn(-c3ccccc3)cc2-c2ccnc(NCCCNS(=O)(=O)c3cccc(F)c3)c2)c1 | 6.16 µM | > 100 µM
76 | NC1(CCCCCCCCCCC(=O)O)CNCCNCCNCCNC1 |  | > 100 µM
77 | C#CC(C)(C)Oc1cc(O)c2c(=O)c3ccccc3n(C)c2c1 |  | > 100 µM
78 | CC[n+]1ccc2c(c1)C(=O)c1nccc3c1c-2nc1ccccc13 | 2.1 µM | > 33.3 µM
